“Also recorded” adds a separate entry of the source.
Test: nasal administration of cGMP PDE inhibitors with added local anaesthetic
Assay type: in vivo

SMILES: OCc1ccccc1 [benzyl alcohol]
- local irritation of the nasal mucosa: led to local irritation of the nasal mucosa
- ability to reduce or prevent the disadvantages occurring on nasal administration of cGMP PDE inhibitors (unpleasant nasal condition, eye-watering, increased nasal airway resistance, nasal blockage) (added to cGMP PDE inhibitor): unable to reduce or prevent the disadvantages; also recorded: unsuitable for overcoming the disadvantages

— US20040142944A1, “Compositions for nasal application” (priority 2001, published 2004)
